Measurements: patent US10118935B2, “Melampomagnolide B dimers” (priority 2014, dated 2018)

Legend:
[1] = tested on: HOP-62; assay: NCI 60 cell line five dose, Non-Small Cell Lung Cancer; type: cell-based, human
[2] = tested on: IGROV1; assay: NCI 60 cell line five dose, Ovarian Cancer; type: cell-based, human
[3] = tested on: CCRF-CEM; assay: NCI 60 cell line five dose, Leukemia
[4] = tested on: MOLT-4; assay: NCI 60 cell line five dose, Leukemia
[5] = tested on: RPMI-8226; assay: NCI 60 cell line five dose, Leukemia
[6] = tested on: MDA-MB-435; assay: NCI 60 cell line five dose, Melanoma
[7] = tested on: SK-MEL-5; assay: NCI 60 cell line five dose, Melanoma
[8] = tested on: KM12; assay: NCI 60 cell line five dose, Colon Cancer
[9] = tested on: ACHN; assay: NCI 60 cell line five dose, Renal Cancer
[10] = tested on: MDA-MB-231/ATCC; assay: NCI 60 cell line five dose, Breast Cancer
[11] = tested on: OVCAR-5; assay: NCI 60 cell line five dose, Ovarian Cancer
[12] = tested on: OVCAR-8; assay: NCI 60 cell line five dose, Ovarian Cancer

## C=C1C(=O)O[C@H]2[C@H]1CC/C(COC(=O)NCCCCCCCCNC(=O)OC/C1=C/CC[C@@]3(C)O[C@H]3[C@H]3OC(=O)C(=C)[C@@H]3CC1)=C\CC[C@@]1(C)O[C@@H]21 [JVM 3-62, bis(((1aR,7aS, 10aS, 10bS, E)-1a-Methyl-8-methylene-9-oxo-1a,2,3,6,7,7a,8,9,10a,10b-decahydrooxireno[2′,3′:9,10]cyclodeca[1,2-b]furan-5-yl)methyl)octane-1,8-diyldicarbamate]
[1]; Log10 Concentration −4.0
  Percent Growth: −80%
[1]; Log10 Concentration −5.0
  Percent Growth: −64%
[1]; Log10 Concentration −6.0
  Percent Growth: 76%
[1]; Log10 Concentration −7.0
  Percent Growth: 103%
[1]; Log10 Concentration −8.0
  Percent Growth: 103%
[1]; molar
  GI50: 1530 nM
  TGI: 3.49E−6
[1]; molar, read-out: LC50 (the source's name)
  CC50: 7950 nM
[2]; Log10 Concentration −4.0
  Percent Growth: −71%
[2]; Log10 Concentration −5.0
  Percent Growth: −71%
[2]; Log10 Concentration −6.0
  Percent Growth: 61%
[2]; Log10 Concentration −7.0
  Percent Growth: 102%
[2]; Log10 Concentration −8.0
  Percent Growth: 105%
[2]; molar
  GI50: 1010 nM
  TGI: 2.61E−6
[3]; Log10 Concentration −4.0
  Percent Growth: −44%
[3]; Log10 Concentration −5.0
  Percent Growth: −45%
[3]; Log10 Concentration −6.0
  Percent Growth: −8%
[3]; Log10 Concentration −7.0
  Percent Growth: 89%
[3]; Log10 Concentration −8.0
  Percent Growth: 99%
[3]; molar
  GI50: 255 nM
[3]; read-out: LC50, molar
  CC50: > 100000 nM
[4]; Log10 Concentration −4.0
  Percent Growth: −34%
[4]; Log10 Concentration −5.0
  Percent Growth: −27%
[4]; Log10 Concentration −6.0
  Percent Growth: 2%
[4]; Log10 Concentration −7.0
  Percent Growth: 101%
[4]; Log10 Concentration −8.0
  Percent Growth: 100%
[4]; molar
  GI50: 330 nM
  TGI: 1.18E−6
[4]; read-out: LC50, molar
  CC50: > 100000 nM
[5]; Log10 Concentration −4.0
  Percent Growth: −38%
[5]; Log10 Concentration −5.0
  Percent Growth: −45%
[5]; Log10 Concentration −6.0
  Percent Growth: −13%
[5]; Log10 Concentration −7.0
  Percent Growth: 92%
[5]; Log10 Concentration −8.0
  Percent Growth: 98%
[5]; molar
  GI50: 250 nM
  TGI: 7.45E−7
[5]; read-out: LC50, molar
  CC50: > 100000 nM
[6]; Log10 Concentration −4.0
  Percent Growth: −86%
[6]; Log10 Concentration −5.0
  Percent Growth: −74%
[6]; Log10 Concentration −6.0
  Percent Growth: −18%
[6]; Log10 Concentration −7.0
  Percent Growth: 92%
[6]; Log10 Concentration −8.0
  Percent Growth: 91%
[6]; molar
  GI50: 241 nM
  TGI: 6.86E−7
[6]; read-out: LC50, molar
  CC50: 3740 nM
[7]; Log10 Concentration −4.0
  Percent Growth: −87%
[7]; Log10 Concentration −5.0
  Percent Growth: −89%
[7]; Log10 Concentration −6.0
  Percent Growth: 63%
[7]; Log10 Concentration −7.0
  Percent Growth: 95%
[7]; Log10 Concentration −8.0
  Percent Growth: 99%
[7]; molar
  GI50: 1210 nM
  TGI: 2.59E−6
[7]; read-out: LC50, SK-MEL-6, molar
  CC50: 5530 nM
[8]; Log10 Concentration −4.0
  Percent Growth: −83%
[8]; Log10 Concentration −5.0
  Percent Growth: −66%
[8]; Log10 Concentration −6.0
  Percent Growth: 65%
[8]; Log10 Concentration −7.0
  Percent Growth: 105%
[8]; Log10 Concentration −8.0
  Percent Growth: 102%
[8]; molar
  GI50: 1290 nM
[8]; read-out: LC50, molar
  CC50: 7490 nM
[9]; Log10 Concentration −4.0
  Percent Growth: −78%
[9]; Log10 Concentration −5.0
  Percent Growth: −84%
[9]; Log10 Concentration −6.0
  Percent Growth: −31%
[9]; Log10 Concentration −7.0
  Percent Growth: 100%
[9]; Log10 Concentration −8.0
  Percent Growth: 98%
[9]; molar
  GI50: 268 nM
  TGI: 6.62E−7
[9]; read-out: LC50, molar
  CC50: 2850 nM
[10]; Log10 Concentration −4.0
  Percent Growth: −80%
[10]; Log10 Concentration −5.0
  Percent Growth: −78%
[10]; Log10 Concentration −6.0
  Percent Growth: −47%
[10]; Log10 Concentration −7.0
  Percent Growth: 92%
[10]; Log10 Concentration −8.0
  Percent Growth: 99%
[10]; molar
  GI50: 200 nM
  TGI: 4.58E−7
[10]; read-out: LC50, molar
  CC50: 1240 nM
[11]; Log10 Concentration −4.0
  Percent Growth: −77%
[11]; Log10 Concentration −5.0
  Percent Growth: −80%
[11]; Log10 Concentration −6.0
  Percent Growth: −4%
[11]; Log10 Concentration −7.0
  Percent Growth: 91%
[11]; Log10 Concentration −8.0
  Percent Growth: 92%
[11]; molar
  GI50: 269 nM
  TGI: 9.12E−7
[11]; read-out: LC50, molar
  CC50: 4040 nM
[12]; Log10 Concentration −4.0
  Percent Growth: −55%
[12]; Log10 Concentration −5.0
  Percent Growth: −51%
[12]; Log10 Concentration −6.0
  Percent Growth: 6%
[12]; Log10 Concentration −7.0
  Percent Growth: 96%
[12]; Log10 Concentration −8.0
  Percent Growth: 100%
[12]; molar
  GI50: 326 nM
[12]; read-out: LC50, molar
  CC50: 6770 nM
